This note sets out measurements from patent US20110065632A1, “PHARMACEUTICAL COMPOSITIONS OF SOMATOSTATIN-DOPAMINE CONJUGATES” (priority 2008, published 2011).

Assay [1] concerns the target T1, hsst1 (Homo sapiens, UniProt P30872).
T1 construct: expressed in transfected cells
Description: Somatostatin receptor radioligand binding assay, hsst1. The conditions noted are these: CHO-K1 membranes, [125I-Tyr11]SS-14; read-out: hsst1 Ki. Here is the method: Specificity and selectivity of the somatostatin analogues used to synthesize the somatostatin-dopamine chimers were determined by a radioligand binding assay on CHO-K1 cells stably transfected with each of the SSTR subtypes, as follows. Somatostatin analogs are also described in U.S. Patent Application Publication No. 02210006790. The complete coding sequences of genomic fragments of the SSTR 1 (e.g., Genbank accession No. M81829), SSTR 2 (e.g., Genbank accession No. M81830), SSTR 3 (e.g., Genbank accession No. L07062), and SSTR 4 (e.g., Genbank accession No. AL049651) genes and a cDNA clone for SSTR 5 (e.g., Genbank accession No. D16827) was subcloned into the mammalian expression vector pCMV (Life Technologies, Milano, Italy). Other SSTR sequences are known to the skilled artisan. Clonal cell lines stably expressing SSTR's 1-5 were obtained by transfection into CHO-K1 cells (ATCC, Manassas, Va., USA) using the calcium phosphate co-precipitation method (Davis L, et al., 1994 In: Basic methods in Molecular Biology, 2nd edition, Appleton & Lange, Norwalk, Conn., USA: 611-646). The plasmid pRSV-neo (ATCC) was included as a selectable marker. Clonal cell lines were selected in RPMI 1640 media containing 0.5 mg/mL of G418 (Life Technologies, Milano, Italy), ring cloned, and expanded into culture.
Membranes for in vitro receptor binding assays were obtained by homogenizing the CHO-K1 cells expressing the SSTR's subtypes in ice-cold 50 mM Tris-HCl and centrifuging twice at 39,000 g (10 min), with an intermediate resuspension in fresh buffer. The final pellets were resuspended in 10 mM Tris-HCl for assay.
For the SSTR 1, 3, 4, and 5 assays, aliquots of the membrane preparations were incubated 90 minutes at 25° C. with 0.05 nM [^125I-Tyr11]SS-14 in 50 mM HEPES (pH 7.4) containing 10 mg/mL BSA, 5 mM MgCl2, 200 KIU/mL Trasylol, 0.02 mg/mL bacitracin, and 0.02 mg/mL phenylmethylsuphonyl fluoride. The final assay volume was 0.3 mL.
For the SSTR 2 assay, 0.05 nM [^125I]MK-678 was employed as the radioligand and the incubation time was 90 minutes at 25° C. The incubations were terminated by rapid filtration through GF/C glass microfiber filters (Whatman Co.) (pre-soaked in 0.3% polyethylenimine) using a BRANDEL filtration manifold. Each tube and filter was washed three times with 5 mL aliquots of ice-cold buffer. Specific binding was defined as the total radioligand bound minus that bound in the presence of 1000 nM SS-14 for SSTR 1, 3, 4, and 5, or 1000 nM MK-678 for SSTR2.
(§1) Using the discussed assays, the inhibition constants (Ki) for the five human somatostatin receptors (hSSTR1-hSSTR5) and the dopamine-2 receptor (hUTII and hDA2) were measured for the exemplified somatostatin-dopamine conjugates, as follows: […]

Assay [2] addresses T2, hsst2 (Homo sapiens, UniProt P30874).
T2 construct: expressed in transfected cells
Briefly: Somatostatin receptor radioligand binding assay, hsst2. The conditions noted are these: CHO-K1 membranes, [125I]MK-678; read-out: hsst2 Ki. The method in brief: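 Membranes from CHO-K1 cells stably expressing human SSTR2, in 10 mM Tris-HCl, incubated 90 min at 25 °C with 0.05 nM [125I]MK-678. Bound ligand collected by filtration on PEI-soaked GF/C filters; nonspecific binding defined with 1000 nM MK-678.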

In assay [3] the target is T3, hsst3 (Homo sapiens, UniProt P32745).
T3 construct: expressed in transfected cells
Description: Somatostatin receptor radioligand binding assay, hsst3. The conditions noted are these: CHO-K1 membranes, [125I-Tyr11]SS-14; read-out: hsst3 Ki. The method in brief: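 Membranes from CHO-K1 cells stably transfected with each human SSTR subtype, incubated 90 min at 25 °C with 0.05 nM [125I-Tyr11]SS-14 in 50 mM HEPES pH 7.4 with BSA, MgCl2 and protease inhibitors; filtration read-out. Nonspecific binding with 1000 nM SS-14; Ki values reported.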

The target in assay [4] is T4, hsst5 (Homo sapiens, UniProt P35346).
T4 construct: expressed in transfected cells
Briefly: Somatostatin receptor radioligand binding assay, hsst5. The conditions noted are these: CHO-K1 membranes, [125I-Tyr11]SS-14; read-out: hsst5 Ki. Put shortly:
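Membranes from CHO-K1 cells stably expressing hsst5, incubated 90 min at 25 °C with 0.05 nM [125I-Tyr11]SS-14 in 50 mM HEPES pH 7.4 with BSA, MgCl2 and protease inhibitors. Bound ligand collected by filtration. Non-specific binding defined with 1000 nM SS-14.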

Assay [5] concerns the target T5, hUTII (Homo sapiens, UniProt Q9UKP6).
T5 sequence (Q9UKP6 1-389): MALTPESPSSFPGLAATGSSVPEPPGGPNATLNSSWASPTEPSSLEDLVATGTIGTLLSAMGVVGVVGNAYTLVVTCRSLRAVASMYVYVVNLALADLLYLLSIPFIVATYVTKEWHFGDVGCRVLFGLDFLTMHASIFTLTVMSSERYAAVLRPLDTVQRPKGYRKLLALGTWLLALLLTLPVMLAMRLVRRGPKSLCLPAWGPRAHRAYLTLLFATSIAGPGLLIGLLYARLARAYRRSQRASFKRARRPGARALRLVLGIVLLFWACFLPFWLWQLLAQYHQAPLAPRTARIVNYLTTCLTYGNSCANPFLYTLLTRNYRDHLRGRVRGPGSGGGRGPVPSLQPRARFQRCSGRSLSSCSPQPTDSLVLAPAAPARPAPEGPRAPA
Description: hUTII inhibition constant. It counts as binding. To be noted: read-out: hUTII Ki. As to the method:
as §1

Assay [6] concerns the target hDA2. Briefly: Dopamine-2 receptor radioligand binding assay. The conditions noted are these: [3H]spiperone. Further details: species or system human.

T2 sequence (P30874 whole entry): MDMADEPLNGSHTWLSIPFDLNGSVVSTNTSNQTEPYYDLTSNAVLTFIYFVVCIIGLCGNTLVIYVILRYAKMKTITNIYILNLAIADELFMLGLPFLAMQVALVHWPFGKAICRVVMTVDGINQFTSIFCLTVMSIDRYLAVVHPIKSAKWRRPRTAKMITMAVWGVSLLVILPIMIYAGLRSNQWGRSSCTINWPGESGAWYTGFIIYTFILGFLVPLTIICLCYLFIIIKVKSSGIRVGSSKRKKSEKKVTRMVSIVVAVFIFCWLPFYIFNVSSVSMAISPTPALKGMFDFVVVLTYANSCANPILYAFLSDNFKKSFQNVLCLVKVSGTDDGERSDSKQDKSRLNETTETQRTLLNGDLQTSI
T3 sequence (P32745 whole entry): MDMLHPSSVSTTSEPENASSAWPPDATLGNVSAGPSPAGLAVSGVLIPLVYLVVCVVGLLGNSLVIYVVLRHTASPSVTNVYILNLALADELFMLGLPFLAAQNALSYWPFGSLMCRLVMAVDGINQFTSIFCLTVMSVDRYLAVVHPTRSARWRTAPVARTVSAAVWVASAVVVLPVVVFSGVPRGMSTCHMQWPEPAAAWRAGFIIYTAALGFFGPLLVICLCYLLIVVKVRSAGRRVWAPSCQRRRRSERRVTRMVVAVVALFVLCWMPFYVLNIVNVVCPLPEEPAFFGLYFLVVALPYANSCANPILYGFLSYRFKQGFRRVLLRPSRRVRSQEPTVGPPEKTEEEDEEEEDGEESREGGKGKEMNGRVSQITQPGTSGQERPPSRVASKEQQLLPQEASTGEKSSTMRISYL
T1 sequence (P30872 whole entry): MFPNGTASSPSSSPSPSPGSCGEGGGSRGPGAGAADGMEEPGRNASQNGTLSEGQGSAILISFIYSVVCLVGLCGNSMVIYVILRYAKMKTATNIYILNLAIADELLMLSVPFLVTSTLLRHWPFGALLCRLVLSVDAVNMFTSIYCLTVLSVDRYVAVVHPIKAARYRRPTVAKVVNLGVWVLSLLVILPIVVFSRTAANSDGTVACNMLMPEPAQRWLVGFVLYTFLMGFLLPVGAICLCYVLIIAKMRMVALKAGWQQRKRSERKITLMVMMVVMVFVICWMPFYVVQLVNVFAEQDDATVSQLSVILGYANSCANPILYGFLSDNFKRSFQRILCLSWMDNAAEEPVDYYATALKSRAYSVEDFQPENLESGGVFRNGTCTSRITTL
T4 sequence (P35346 whole entry): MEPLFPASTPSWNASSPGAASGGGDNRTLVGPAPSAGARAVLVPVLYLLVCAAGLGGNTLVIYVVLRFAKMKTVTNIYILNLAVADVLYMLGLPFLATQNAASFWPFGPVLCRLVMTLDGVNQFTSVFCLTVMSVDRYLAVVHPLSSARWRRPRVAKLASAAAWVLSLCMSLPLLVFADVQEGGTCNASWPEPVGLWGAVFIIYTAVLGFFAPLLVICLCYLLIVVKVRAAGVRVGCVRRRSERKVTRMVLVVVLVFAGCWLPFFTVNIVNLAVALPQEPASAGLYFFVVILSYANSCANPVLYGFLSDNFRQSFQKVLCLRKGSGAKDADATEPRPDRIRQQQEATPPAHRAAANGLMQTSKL

One may read the Ki as the equilibrium dissociation constant of an inhibitor or competing ligand from its target. Regarding `C=CCN1C[C@H](C(=O)N(CCCN(C)CC(=O)N[C@H](Cc2ccccc2)C(=O)N[C@H]2CSSC[C@@H](C(=O)N[C@H](C(N)=O)[C@@H](C)O)NC(=O)[C@H](CC)NC(=O)[C@H](CCCCN)NC(=O)[C@@H](Cc3c[nH]c4ccccc34)NC(=O)[C@H](Cc3ccc(O)cc3)NC2=O)C(=O)NCC)C[C@@H]2c3cccc4[nH]cc(c34)C[C@H]21` [Example 6], the Ki in assay [1] is 509 nM; in assay [2], 0.51 nM; in assay [3], 798 nM; in assay [4], 56.5 nM; in assay [5] it was 677 nM; in assay [6], 65 nM.

Regarding `CCCN1C[C@H](CSCC(=O)N[C@H](Cc2ccccc2)C(=O)N[C@H]2CSSC[C@@H](C(=O)N[C@H](C(N)=O)[C@@H](C)O)NC(=O)[C@H](CC)NC(=O)[C@H](CCCCN)NC(=O)[C@@H](Cc3c[nH]c4ccccc34)NC(=O)[C@H](Cc3ccc(O)cc3)NC2=O)C[C@@H]2c3cccc4[nH]cc(c34)C[C@H]21` [Example 31], the inhibition constant Ki in assay [1] was 691 nM; in assay [2] it was 0.1 nM; in assay [3] it was 84.6 nM; in assay [4], 22.6 nM; in assay [5], 498 nM; in assay [6], 25.5 nM.
